# Source: article PMC13050480, “Preclinical Development of GT-14, a Novel Inhibitor of Gαi2 Protein: Comprehensive Evaluation of Physicochemical, Metabolic Characteristics and Tissue Distribution” (The AAPS journal, 2025)
# “And” between values parts separate entries of the source, which are not always exact repeats. Equal entries are not always repeated. “Also recorded” adds a separate entry of the source. Where two headings read alike, the source gives them in different places.
# Experiments:
# [1] = Ionization constant (pKa) determination, Pion Sirius T3, UV-metric and Fast UV titration; type: physicochemical; conditions: for pKa: 0.15 M KCl solution, 0.15 M KCl, 25 ± 1°C
# Description: The Ionization constant of GT-14 was determined using the Pion Sirius T3 apparatus (Sirius Analytical Instruments Ltd., East Sussex, UK). It has an Ag/AgCl double junction reference pH electrode, a Sirius ±D-PAS spectrometer and a turbidity sensing device. The titration experiments were conducted in 0.15 M KCl solution under an argon atmosphere at a temperature of 25 ± 1°C. All tests were performed using standardized 0.5 M KOH and 0.5 M HCl as titration reagents. pKa value was measured using UV-metric and Fast UV titration methods.
# [2] = parameters: method as in PMID 38744031; conditions: rat, cited from earlier work
# LNCaP cells = tested on: LNCaP cells; parameters: method as in PMID 38254786; conditions: simultaneous treatment; cited from earlier work
# DU145 = tested on: DU145; parameters: method as in PMID 32575572; conditions: cited from earlier work
# [3] = Phase I biotransformation in rat liver microsomes; type: in vitro ADME; conditions: rat, 60 min incubation
# Description: (§1) The in vitro phase I reaction was conducted using rat liver microsome, which contain the cytochrome P450 monooxygenases that catalyze oxidation, reduction, or hydrolysis reactions to introduce or expose functional groups on the substrate. NADPH is the cofactor to provide the reducing equivalents required for enzymatic activity, while the cofactor regeneration systems (NADP^+, glucose-6-phosphate, and glucose-6-phosphate dehydrogenase) maintain a sustained supply of NADPH during the reaction to facilitate the metabolite, Potassium phosphate buffer (KPI) mimics physiological conditions. The components were added to microcentrifuge tubes in the following order: The stock solution GT-14 (5 μL, 1 mM) was pre-incubated with rat liver microsomes (12.5 μL, 20 mg/mL, Corning Inc.) at 37°C in KPI buffer(452.5 μL, 50 mM) for 5 min before the reaction was initiated by the addition of an NADPH regenerating system, which consisted of 25μL of solution A1(1.3 mM NADP+, 3.3 mM glucose-6-phosphate, 3.3 mM magnesium chloride), and 5μL of solution B1 (0.5 units/mL glucose-6-phosphate dehydrogenase). Reaction mixtures were incubated at 37 °C in a shaker bath, shaking at 100 rpm. […] The quenched samples were vortexed, centrifuged (14,000 rpm for 15 min) and analyzed by UPLC.
# rat liver microsomes = assay: Phase I biotransformation in rat liver microsomes; type: in vitro ADME; conditions: NADPH regenerating system, 37°C
# Description: as §1
smiles,measurement,setting,value
"C/C(=N\c1ccc(O)cc1)c1cc2ccccc2n1C [GT-14, (E)-4-((1-(1-methyl-1H-indol-2-yl)ethylidene)amino)phenol]",pKa,"[1]; read-out: pKa (printed as acidic pKa, nitrogen of the imine group)",3.46 ± 0.014
same,pKa,"[1]; read-out: pKa (printed as basic pKa, phenolic group)",10.5 ± 0.4
same,isoelectric point (pI),[1]; pI=(pKa acid+pKa base)/2,approximately 7.0
same,maximum plasma concentration (Cmax),"[2]; IV bolus 5 mg/kg, two-compartment model",approximately 200 ng/mL
same,terminal plasma elimination half-life,"[2]; IV bolus 5 mg/kg, 5 mg/kg",4.4678 h and 4.468 h
same,AUC0–∞,[2]; IV bolus 5 mg/kg,"23,742 min*ng/mL"
same,apparent volume of distribution (Vd),[2]; IV bolus 5 mg/kg,"25,205 ± 2,585 mL/kg"
same,distribution half-life,[2]; IV bolus 5 mg/kg,0.267 h
same,mean systemic clearance (CL),[2]; IV bolus 5 mg/kg,229.9 mL/min/kg
same,Plasma half-life in rats,[2]; IV,4 to 5 h
same,terminal plasma elimination half-life,[2]; IV,> 4 h
same,HDACi and antiandrogen effects on cell migration in LNCaP cells,LNCaP cells,blocked
same,migratory capability of DU145 cells,DU145,significant reduction
same,"remaining at 1 h, 10 μM",[3],> 90%
same,Phase I metabolism (UPLC peaks),rat liver microsomes,undergoes Phase I metabolism; also recorded: underwent Phase I metabolism; also recorded: at least four additional peaks appeared
